In ChEMBL document CHEMBL1255421, “In vitro fungicidal activities of echinocandins against Candida metapsilosis, C. orthopsilosis, and C. parapsilosis evaluated by time-kill studies” (2010):
Converted amounts (≈) assume the structure as drawn. The source made the active and inactive calls. No cut-off for these calls is given here. Numbered stars: 1 amine (or outer) side, 2 acyl side, 3 side chain; on linkers, the order of the positions; unused ones are H or OH. Bridge positions count the residues as written; N and C are the ends. Square brackets hold non-standard residues; d marks the D form. Peptide text beside a SMILES is read from it. * marks the point of attachment. hTyr(3S-OH,4S-OH,3'-OSO3H) = N[C@H](C(=O)O)[C@H](O)[C@@H](O)c1ccc(O)c(OS(=O)(=O)O)c1; Orn(4R-OH,5R-OH) = O=C([C@H](C[C@@H](O)[C@@H](O)N[*:3])N[*:1])[*:2]; Pro(3S-OH,4S-Me) = C[C@H]1CN[C@H](C(=O)O)[C@H]1O; X1 = CCCCCOc1ccc(-c2cc(-c3ccc(C(=O)*)cc3)no2)cc1; Gln(3R-OH) = NC(=O)C[C@@H](O)[C@H](N)C(=O)O; Hyp = O=C(O)[C@@H]1C[C@@H](O)CN1

Tests used:
[1] = test system: Candida metapsilosis; assay: Antifungal activity against Candida metapsilosis clinical isolate bloodstream form assessed as time required for 99% reduction in fungal growth at 1 mg/L by time-kill assay; format: functional
[2] = test system: Candida orthopsilosis; assay: Antifungal activity against Candida orthopsilosis clinical isolate bloodstream form assessed as time required for 99% reduction in fungal growth at 32 mg/L by time-kill assay; format: functional
[3] = test system: Candida orthopsilosis; assay: Antifungal activity against Candida orthopsilosis clinical isolate bloodstream form assessed as time required for 90% reduction in fungal growth at 16 mg/L by time-kill assay; format: functional
[4] = test system: Candida orthopsilosis; assay: Antifungal activity against Candida orthopsilosis clinical isolate bloodstream form assessed as time required for 50% reduction in fungal growth at 1 mg/L by time-kill assay; format: functional
[5] = test system: Candida orthopsilosis; assay: Antifungal activity against Candida orthopsilosis clinical isolate bloodstream form assessed as time required for 50% reduction in fungal growth at 32 mg/L by time-kill assay; format: functional
[6] = test system: Candida parapsilosis; assay: Antifungal activity against Candida parapsilosis clinical isolate bloodstream form assessed as induction of fungal killing rate at 0.03 to 32 mg/L measured at 6 hrs by time-kill assay; format: functional, organism-based
[7] = test system: Candida parapsilosis; assay: Antifungal activity against Candida parapsilosis clinical isolate bloodstream form assessed as time required for 50% reduction in fungal growth at 16 mg/L by time-kill assay; format: functional
[8] = test system: Candida metapsilosis; assay: Antifungal activity against Candida metapsilosis clinical isolate bloodstream form assessed as time required for 50% reduction in fungal growth at 32 mg/L by time-kill assay; format: functional
[9] = test system: Candida metapsilosis; assay: Antifungal activity against Candida metapsilosis clinical isolate bloodstream form assessed as time required for 99% reduction in fungal growth at 4 mg/L by time-kill assay; format: functional
[10] = test system: Candida metapsilosis; assay: Antifungal activity against Candida metapsilosis clinical isolate bloodstream form assessed as time required for 99.9% reduction in fungal growth at 16 mg/L by time-kill assay; format: functional
[11] = test system: Candida metapsilosis; assay: Antifungal activity against Candida metapsilosis clinical isolate bloodstream form assessed as mild induction of fungal death at 0.03 to 32 mg/L after 6 hrs by time-kill assay; format: functional, organism-based
[12] = test system: Candida metapsilosis; assay: Antifungal activity against Candida metapsilosis clinical isolate bloodstream form assessed as time required for 99.9% reduction in fungal growth at 4 mg/L by time-kill assay; format: functional
[13] = test system: Candida metapsilosis; assay: Antifungal activity against Candida metapsilosis clinical isolate bloodstream form assessed as time required for 90% reduction in fungal growth at 4 mg/L by time-kill assay; format: functional
[14] = test system: Candida metapsilosis; assay: Antifungal activity against Candida metapsilosis clinical isolate bloodstream form assessed as time required for 99.9% reduction in fungal growth at 0.25 mg/L by time-kill assay; format: functional
[15] = test system: Candida orthopsilosis; assay: Antifungal activity against Candida orthopsilosis clinical isolate bloodstream form assessed as time required for 50% reduction in fungal growth at 4 mg/L by time-kill assay; format: functional
[16] = test system: Candida metapsilosis; assay: Antifungal activity against Candida metapsilosis clinical isolate bloodstream form assessed as time required for 50% reduction in fungal growth at 1 mg/L by time-kill assay; format: functional
[17] = test system: Candida orthopsilosis; assay: Antifungal activity against Candida orthopsilosis clinical isolate bloodstream form assessed as time required for 99.9% reduction in fungal growth at 1 mg/L by time-kill assay; format: functional
[18] = test system: Candida orthopsilosis; assay: Antifungal activity against Candida orthopsilosis clinical isolate bloodstream form assessed as mild induction of fungal death at 0.03 to 32 mg/L after 6 hrs by time-kill assay; format: functional, organism-based
[19] = test system: Candida parapsilosis; assay: Antifungal activity against Candida parapsilosis clinical isolate bloodstream form assessed as time required for 99% reduction in fungal growth at 4 mg/L by time-kill assay; format: functional
[20] = test system: Candida orthopsilosis; assay: Antifungal activity against Candida orthopsilosis clinical isolate bloodstream form assessed as time required for 50% reduction in fungal growth at 0.25 mg/L by time-kill assay; format: functional
[21] = test system: Candida orthopsilosis; assay: Fungicidal activity against Candida orthopsilosis isolate CP-131 bloodstream form by CLSI method; format: functional; conditions: Lodderomyces orthopsilosis
[22] = test system: Candida orthopsilosis; assay: Antifungal activity against Candida orthopsilosis clinical isolate bloodstream form assessed as time required for 99.9% reduction in fungal growth at 16 mg/L by time-kill assay; format: functional
[23] = test system: Candida parapsilosis; assay: Antifungal activity against Candida parapsilosis clinical isolate bloodstream form assessed as time required for 99% reduction in fungal growth at 16 mg/L by time-kill assay; format: functional
[24] = test system: Candida metapsilosis; assay: Fungicidal activity against Candida metapsilosis isolate ATC193 bloodstream form by CLSI method; format: functional; conditions: Lodderomyces metapsilosis, isolate ATC-193
[25] = test system: Candida parapsilosis; assay: Antifungal activity against Candida parapsilosis clinical isolate bloodstream form assessed as time required for 99% reduction in fungal growth at 32 mg/L by time-kill assay; format: functional
[26] = test system: Candida metapsilosis; assay: Fungicidal activity against Candida metapsilosis isolate CP-132 bloodstream form by CLSI method; format: functional; conditions: Lodderomyces metapsilosis
[27] = test system: Candida metapsilosis; assay: Antifungal activity against Candida metapsilosis clinical isolate bloodstream form assessed as time required for 99% reduction in fungal growth at 0.25 mg/L by time-kill assay; format: functional
[28] = test system: Candida metapsilosis; assay: Antifungal activity against Candida metapsilosis clinical isolate bloodstream form assessed as time required for 99% reduction in fungal growth at 16 mg/L by time-kill assay; format: functional
[29] = test system: Candida metapsilosis; assay: Antifungal activity against Candida metapsilosis clinical isolate bloodstream form assessed as induction of fungal killing rate at 0.03 to 32 mg/L measured at 6 hrs by time-kill assay; format: functional, organism-based
[30] = test system: Candida orthopsilosis; assay: Antifungal activity against Candida orthopsilosis clinical isolate bloodstream form assessed as time required for 90% reduction in fungal growth at 4 mg/L by time-kill assay; format: functional
[31] = test system: Candida orthopsilosis; assay: Antifungal activity against Candida orthopsilosis clinical isolate bloodstream form assessed as time required for 99% reduction in fungal growth at 0.25 mg/L by time-kill assay; format: functional
[32] = test system: Candida metapsilosis; assay: Antifungal activity against Candida metapsilosis clinical isolate bloodstream form assessed as time required for 99% reduction in fungal growth at 32 mg/L by time-kill assay; format: functional
[33] = test system: Candida metapsilosis; assay: Antifungal activity against Candida metapsilosis clinical isolate bloodstream form assessed as time required for 50% reduction in fungal growth at 4 mg/L by time-kill assay; format: functional
[34] = test system: Candida parapsilosis; assay: Antifungal activity against Candida parapsilosis clinical isolate bloodstream form assessed as time required for 90% reduction in fungal growth at 4 mg/L by time-kill assay; format: functional
[35] = test system: Candida orthopsilosis; assay: Antifungal activity against Candida orthopsilosis clinical isolate bloodstream form assessed as time required for 99.9% reduction in fungal growth at 4 mg/L by time-kill assay; format: functional
[36] = test system: Candida metapsilosis; assay: Antifungal activity against Candida metapsilosis clinical isolate bloodstream form assessed as time required for 90% reduction in fungal growth at 16 mg/L by time-kill assay; format: functional
[37] = test system: Candida parapsilosis; assay: Antifungal activity against Candida parapsilosis clinical isolate bloodstream form assessed as time required for 50% reduction in fungal growth at 4 mg/L by time-kill assay; format: functional
[38] = test system: Candida parapsilosis; assay: Antifungal activity against Candida parapsilosis clinical isolate bloodstream form assessed as time required for 90% reduction in fungal growth at 0.25 mg/L by time-kill assay; format: functional
[39] = test system: Candida parapsilosis; assay: Antifungal activity against Candida parapsilosis clinical isolate bloodstream form assessed as time required for 90% reduction in fungal growth at 32 mg/L by time-kill assay; format: functional
[40] = test system: Candida metapsilosis; assay: Antifungal activity against Candida metapsilosis clinical isolate bloodstream form assessed as time required for 90% reduction in fungal growth at 0.25 mg/L by time-kill assay; format: functional
[41] = test system: Candida orthopsilosis; assay: Fungicidal activity against Candida orthopsilosis isolate CP-151 bloodstream form by CLSI method; format: functional; conditions: Lodderomyces orthopsilosis
[42] = test system: Candida parapsilosis; assay: Antifungal activity against Candida parapsilosis clinical isolate bloodstream form assessed as time required for 99.9% reduction in fungal growth at 16 mg/L by time-kill assay; format: functional
[43] = test system: Candida parapsilosis; assay: Fungicidal activity against Candida parapsilosis isolate CP-300 bloodstream form by CLSI method; format: functional; conditions: Lodderomyces parapsilosis

CCCCCOc1ccc(-c2cc(-c3ccc(C(=O)N[C@H]4C[C@@H](O)[C@@H](O)NC(=O)[C@@H]5[C@@H](O)[C@@H](C)CN5C(=O)[C@H]([C@H](O)CC(N)=O)NC(=O)[C@H]([C@H](O)[C@@H](O)c5ccc(O)c(OS(=O)(=O)O)c5)NC(=O)[C@@H]5C[C@@H](O)CN5C(=O)[C@H]([C@@H](C)O)NC4=O)cc3)no2)cc1 [MICAFUNGIN] (X1-[Orn(4R-OH,5R-OH)]T[Hyp][hTyr(3S-OH,4S-OH,3'-OSO3H)][Gln(3R-OH)][Pro(3S-OH,4S-Me)]; lactam 1-C)
Time [1]: 20.3 h | Time [2]: 10.22 h | Time [3]: 4.59 h | Time [4]: 3.05 h | Time [5]: 1.54 h | Activity [6]: inactive | Time [7]: 9.5 h | Time [8]: 1.43 h | Time [9]: 11.79 h | Time [10]: 14.41 h | Activity [11]: Active | Time [12]: 17.68 h | Time [13]: 5.89 h | Time [14]: >48 h | Time [15]: 1.66 h | Time [16]: 3.06 h | Time [17]: 30.4 h | Activity [18]: Active | Time [19]: >48 h | Time [20]: 15.93 h | MIC [21]: 0.25 mg/L (≈ 0.197 µM) | Time [22]: 13.76 h | Time [23]: >48 h | MIC [24]: 0.25 mg/L (≈ 0.197 µM) | Time [25]: >48 h | MIC [26]: 0.5 mg/L (≈ 0.394 µM) | Time [27]: >48 h | Time [28]: 9.61 h | Activity [29]: inactive | Time [30]: 5.53 h | Time [31]: >48 h | Time [32]: 9.53 h | Time [33]: 1.77 h | Time [34]: >48 h | Time [35]: 16.59 h | Time [36]: 4.8 h | Time [37]: 17.6 h | Time [38]: inactive | Time [39]: 20.45 h | Time [40]: >48 h | MIC [41]: 0.25 mg/L (≈ 0.197 µM) | Time [42]: >48 h | MIC [43]: 0.25 mg/L (≈ 0.197 µM)
